Values of other authors as cited in patent US20130296430A1, “COMPOSITIONS AND METHODS FOR TREATING AUTISM AND AUTISM SPECTRUM DISORDER” (priority 2012, published 2013).

Conditions: doses less than NAC; effects counter to those reported for NAC; Samstrand et al 1999; cited from earlier work

## CC(=O)N[C@@H](CSSC[C@H](NC(C)=O)C(=O)O)C(=O)O [oxidized form of NAC]
  bioactive dose relative to NAC: 10-100 fold
